Measurements reported in patent US12414565B2, “Pyridazine (THIO)amides as fungicidal compounds” (Bayer Aktiengesellschaft, priority 2018, dated 2025).

Columns and labels:
Botrytis cinerea = assay: In vivo preventive test on Botrytis cinerea (grey mould); conditions: 500 ppm of active ingredient, preventive spray on gherkin or cabbage, evaluated 4 to 5 days after inoculation, 100% = no disease, read-out: efficacy
Procedure: (§1) The active ingredients were made soluble and homogenized in a mixture of Dimethyl sulfoxide/Acetone/Tween® 80 and then diluted in water to the desired concentration.
The young plants of gherkin or cabbage were treated by spraying the active ingredient prepared as described above. Control plants were treated only with an aqueous solution of Acetone/Dimethyl sulfoxide/Tween® 80.
After 24 hours, the plants were contaminated by spraying the leaves with an aqueous suspension of Botrytis cinerea spores. The contaminated gherkin plants were incubated for 4 to 5 days at 17° C. and at 90% relative humidity. The contaminated cabbage plants were incubated for 4 to 5 days at 20° C. and at 100% relative humidity.
The test was evaluated 4 to 5 days after the inoculation. 0% means an efficacy which corresponds to that of the control plants while an efficacy of 100% means that no disease was observed.

Pyrenophora teres = assay: In vivo preventive test on Pyrenophora teres (net blotch on barley); conditions: 240 h, 500 ppm of active ingredient, preventive spray on barley, evaluated 10 days after inoculation, 100% = no disease, read-out: efficacy
Procedure: as §1
The young plants of barley were treated by spraying the active ingredient prepared as described above. Control plants were treated only with an aqueous solution of Acetone/Dimethyl sulfoxide/Tween® 80.
After 24 hours, the plants were contaminated by spraying the leaves with an aqueous suspension of Pyrenophora teres spores. The contaminated barley plants were incubated for 48 hours at 20° C. and at 100% relative humidity and then for 8 days at 20° C. and at 70-80% relative humidity.
The test was evaluated 10 days after the inoculation. 0% means an efficacy which corresponds to that of the control plants while an efficacy of 100% means that no disease was observed.

Alternaria alternata = Alternaria alternata in vitro cell test; format: cell-based; conditions: 120 h, 20 ppm of active ingredient, liquid culture, 5 days incubation, absorbance, read-out: efficacy (inhibition of fungal growth)
Procedure: (§2) [table] Fungicides were solubilized in DMSO and the solution used to prepare the required range of concentrations. The final concentration of DMSO used in the assay was <1%. A spore suspension of A. alternata was prepared and diluted to the desired spore density. Fungicides were evaluated for their ability to inhibit spore germination and mycelium growth in liquid culture assay. The compounds were added in the desired concentration to the culture medium with spores. After 5 days incubation, fungi-toxicity of compounds was determined by spectrometric measurement of mycelium growth. Inhibition of fungal growth was determined by comparing the absorbance values in wells containing the fungicides with the absorbance in control wells without fungicides.

Sphaerotheca fuliginea = assay: In vivo preventive test on Sphaerotheca fuliginea (powdery mildew on cucurbits); conditions: Podosphaera fuliginea, 192 h; 500 ppm of active ingredient; preventive spray on gherkin; evaluated 8 days after inoculation; 100% = no disease; read-out: efficacy
Procedure: as §1
The young plants of gherkin were treated by spraying the active ingredient prepared as described above. Control plants were treated only with an aqueous solution of Acetone/Dimethyl sulfoxide/Tween® 80.
After 24 hours, the plants were contaminated by spraying the leaves with an aqueous suspension of Sphaerotheca fuliginea spores. The contaminated gherkin plants were incubated for 8 days at 20° C. and at 70-80% relative humidity.
The test was evaluated 8 days after the inoculation. 0% means an efficacy which corresponds to that of the control plants while an efficacy of 100% means that no disease was observed.

[1] = tested on: Colletotrichum lindemuthianum; assay: Colletotrichum lindemuthianum in vitro cell test; format: cell-based; conditions: 144 h, 20 ppm of active ingredient, liquid culture, 6 days incubation, absorbance, read-out: efficacy (inhibition of fungal growth)
Procedure: as §2, with “was ≤1%.” for “was <1%.”, “of C. lindemuthianum” for “of A. alternata”, “inhibit spores” for “inhibit spore”, “After 6” for “After 5”

Alternaria brassicae = assay: In vivo preventive test on Alternaria brassicae (leaf spot on radish or cabbage); conditions: 144 h, 500 ppm of active ingredient, preventive spray on radish or cabbage, evaluated 6 days after inoculation, 100% = no disease, read-out: efficacy
Procedure: as §1
The young plants of radish or cabbage were treated by spraying the active ingredient prepared as described above. Control plants were treated only with an aqueous solution of Acetone/Dimethyl sulfoxide/Tween® 80.
After 24 hours, the plants were contaminated by spraying the leaves with an aqueous suspension of Alternaria brassicae spores. The contaminated radish or cabbage plants were incubated for 6 days at 20° C. and at 100% relative humidity.
The test was evaluated 6 days after the inoculation. 0% means an efficacy which corresponds to that of the control plants while an efficacy of 100% means that no disease was observed.

[2] = Measurement of Log P values by HPLC on reversed phase columns (EEC directive 79/831 Annex V.A8); format: physicochemical
Procedure: Measurement of Log P values as provided herein was performed according to EEC directive 79/831 Annex V.A8 by HPLC (High Performance Liquid Chromatography) on reversed phase columns with the following methods: • ^[a]
If more than one Log P value is available within the same method, all the values are given and separated by “+”.
Lambda-max-values were determined using UV-spectra from 200 nm to 400 nm and the peak values of the chromatographic signals

Structure (SMILES) | pest or weed control at 500 ppm (Botrytis cinerea) [%] | pest or weed control at 500 ppm (Pyrenophora teres) [%] | inhibition at 20 ppm (Alternaria alternata) [%] | pest or weed control at 500 ppm (Sphaerotheca fuliginea) [%] | inhibition at 20 ppm [1] [%] | pest or weed control at 500 ppm (Alternaria brassicae) [%] | further results
CC(=O)c1cc(C(=O)NCC(F)c2ccc(Br)cc2Cl)c(Oc2cccc(C(F)(F)F)c2)nn1 (racemic) [I-605, 6-acetyl-N-[rac-2-(4-bromo-2-chloro-phenyl)-2-fluoro-ethyl]-3-[3-(trifluoromethyl)phenoxy]pyridazine-4-carboxamide] | 70 to 79 | 70 to 79 | 90 to 100 | 90 to 100 | 90 to 100 | 90 to 100 | –
O=C(O)c1ccnnc1Oc1cccc(C(F)(F)F)c1 [1-129] | – | – | – | – | – | – | LogP ([2]; method [a]: LC-UV, acidic range, 0.1% formic acid in water / acetonitrile, Table 3, formula (1)): 1.47^[a]
Cc1ccc(C(F)(F)CNC(=O)c2cc(C)nnc2Cl)c(C)c1 [3-06] | – | – | – | – | – | – | LogP ([2]; method [a]: LC-UV, acidic range, 0.1% formic acid in water / acetonitrile, Table 7, formula (3)): 3.20^[a]
Cc1ccc(C(F)(F)CNC(=O)c2cc(Cl)nnc2Oc2cccc(C(F)(F)F)c2)c(C)c1 [I-014, 6-chloro-N-[2-(2,4-dimethylphenyl)-2,2-difluoro-ethyl]-3-[3-(trifluoromethyl)phenoxy]pyridazine-4-carboxamide] | 90 to 100 | 70 to 79 | 90 to 100 | 90 to 100 | 90 to 100 | 90 to 100 | –
Cc1ccc(C(F)(F)CNC(=O)c2c(Oc3cccc(C(F)(F)F)c3)nnc(Cl)c2I)c(C)c1 [I-020, 6-chloro-N-[2-(2,4-dimethylphenyl)-2,2-difluoro-ethyl]-5-iodo-3-[3-(trifluoromethyl)phenoxy]pyridazine-4-carboxamide] | 90 to 100 | 80 to 89 | 90 to 100 | 90 to 100 | 90 to 100 | 90 to 100 | –
Cc1ccc(CCNC(=S)c2cc(C)nnc2Oc2cccc(C(F)(F)F)c2)c(C)c1 [I-094, N-[2-(2,4-dimethylphenyl)ethyl]-6-methyl-3-[3-(trifluoromethyl)phenoxy]pyridazine-4-carbothioamide] | 90 to 100 | 80 to 89 | 80 to 89 | 90 to 100 | 90 to 100 | 90 to 100 | –
Cc1cc(C2CC2)ccc1C(F)(F)CNC(=O)c1cc(Cl)nnc1Oc1cccc(C(F)(F)F)c1 [I-240, 6-chloro-N-[2-(4-cyclopropyl-2-methyl-phenyl)-2,2-difluoro-ethyl]-3-[3-(trifluoromethyl)phenoxy]pyridazine-4-carboxamide] | 90 to 100 | 70 to 79 | 90 to 100 | 90 to 100 | 90 to 100 | 90 to 100 | –
CCc1c(Cl)nnc(Oc2cccc(C(F)(F)F)c2)c1C(=O)NCC(F)(F)c1ccc(Cl)cc1 [I-254, 6-chloro-N-[2-(4-chlorophenyl)-2,2-difluoro-ethyl]-5-ethyl-3-[3-(trifluoromethyl)phenoxy]pyridazine-4-carboxamide] | 90 to 100 | – | 90 to 100 | 90 to 100 | 90 to 100 | 90 to 100 | –
O=C(NCC(F)(F)c1ccc(Br)cc1Cl)c1cc(C2CC2)nnc1Oc1cccc(C(F)(F)F)c1 [I-312] | – | – | – | – | – | – | LogP ([2]; method [a]): 4.79; LogP ([2]; method [b]): 4.68
COC(=O)N(CC(F)(F)c1ccc(C)cc1C)C(=O)c1cc(Cl)nnc1Oc1cccc(C(F)(F)F)c1 [I-335, methyl N-[6-chloro-3-[3-(trifluoromethyl)phenoxy]pyridazine-4-carbonyl]-N-[2-(2,4-dimethylphenyl)-2,2-difluoro-ethyl]carbamate] | 90 to 100 | – | 70 to 79 | 80 to 89 | 80 to 89 | 80 to 89 | –
Cc1ccc(C(F)(F)CNC(=O)c2c(Oc3cccc(C(F)(F)F)c3)nnc(Cl)c2NC2COC2)c(C)c1 [I-408, 6-chloro-N-[2-(2,4-dimethylphenyl)-2,2-difluoro-ethyl]-5-(oxetan-3-ylamino)-3-[3-(trifluoromethyl)phenoxy]pyridazine-4-carboxamide] | 90 to 100 | 70 to 79 | 90 to 100 | 90 to 100 | 90 to 100 | 90 to 100 | –
Cc1ccc(C(F)(F)CNC(=O)c2cc(I)nnc2Oc2cccc(C(F)(F)F)c2)c(C)c1 [I-461, N-[2-(2,4-dimethylphenyl)-2,2-difluoro-ethyl]-6-iodo-3-[3-(trifluoromethyl)phenoxy]pyridazine-4-carboxamide] | 90 to 100 | 80 to 89 | 90 to 100 | 90 to 100 | 90 to 100 | 90 to 100 | –
Cc1cc(C(=O)NCCc2ccc(C(F)F)cn2)c(Oc2cccc(C(F)(F)F)c2)nn1 [I-525] | – | – | – | – | – | – | LogP ([2]; LogP method [a]): 2.57; LogP ([2]; LogP method [b]): 2.71
O=C(NCC(F)(F)c1ccc(Br)cc1Cl)c1cc(Cl)nnc1Oc1cccc(F)c1F [I-530, N-[2-(4-bromo-2-chloro-phenyl)-2,2-difluoro-ethyl]-6-chloro-3-(2,3-difluorophenoxy)pyridazine-4-carboxamide] | 90 to 100 | 70 to 79 | 90 to 100 | 90 to 100 | 90 to 100 | 90 to 100 | –
Cc1ccc(C(F)(F)CNC(=O)c2cc(C)nnc2Oc2cccc(C3CCC3)c2)c(C)c1 [I-564, 3-(3-cyclobutylphenoxy)-N-[2-(2,4-dimethylphenyl)-2,2-difluoro-ethyl]-6-methyl-pyridazine-4-carboxamide] | 90 to 100 | – | 90 to 100 | 80 to 89 | 70 to 79 | 80 to 89 | –
CSc1cc(C(=O)NCC(F)(F)c2ccc(C)cc2C)c(Oc2cccc(C(F)(F)F)c2)nn1 [I-767, N-[2-(2,4-dimethylphenyl)-2,2-difluoro-ethyl]-6-methylsulfanyl-3-[3-(trifluoromethyl)phenoxy]pyridazine-4-carboxamide] | 90 to 100 | 80 to 89 | 90 to 100 | 90 to 100 | 90 to 100 | 90 to 100 | –
Cc1ccc(C(F)(F)CNC(=O)c2c(Oc3cccc(C(F)(F)F)c3)nnc(Cl)c2NC2CC2C2CC2)c(C)c1 (centres unmarked) [I-812] | – | – | – | – | – | – | LogP ([2]; method [a]): 4.87^[a]
Cc1ccc(C(F)(F)CNC(=O)c2c(Oc3cccc(C4CC4)c3F)nnc(Cl)c2C)c(Br)c1 [I-840] | – | – | – | – | – | – | LogP ([2]; method marked [a], HPLC on reversed phase columns): 4.57^[a]
